pIC50: −log10 of the molar value. Read-outs that look alike come from different tables or passages of the source.

Data on one compound can be found in US20070161644A1, “Erastin analogs and uses thereof” (priority 2005, published 2007).

The test system of one assay is SK-MEL-28. The assay is described as follows: Sytox screen, tumor cell line panel. Format: cell-based. To be noted: Homo sapiens, Melanoma, B-raf V600E mut, ras wt, read-out: IC 50, SK-MEL-28.
The test system of the next assay is PANC-1. Kind of assay: Sytox screen, tumor cell line panel. To be noted: Homo sapiens, Pancreatic, K-ras V12 mutant, read-out: IC 50, PANC-1. Format: cell-based.
Another assay relates to BJELR. Kind of assay: Sytox primary screen. The assay is classed as cell-based. To be noted: Homo sapiens. The text has this:
The Sytox primary screen is a phenotypic assay which monitors alterations in cell survival-proliferation as a result of compound treatment. It was devised as high throughput method to identify compounds which specifically alter the growth potential of cells harboring the causative mutations found in cancer patients while not affecting the growth of normal cells.
The assay relies upon an inexpensive, simple and reliable readout of a membrane impermeable fluorescent dye (Sytox, from Molecular Probes) which binds to nucleic acid. In healthy cells, no signal is detected because the cell's membrane is intact and the dye will not enter. However, if a cell's membrane is compromised as a result of apoptosis or necrosis, a fluorescent signal proportional to the number of similarly affected cells will be detected. By utilizing a two-step readout (final read in the presence of detergent to permit labeling of all cells), the assay can identify compounds which produce cytostasis, cytotoxicity and/or mitogenesis. The first read or “dead cell” read provides an estimate of the toxicity of a given compound by indicating the number of dead or dying cells in the culture at the time of assay. The second read or “total cell” read captures both the cumulative effects of cytoxicity in reducing the size of the cell population as well as any cytostatic or anti-proliferative effects a test compound may exert on the cells in the test population in the absence of toxicity.
For the purpose of screening, the previously described BJ-TERT line was defined as the “normal” reference cell line and BJ-TERT/LT/ST/RAS^V12 cells were the tumorigenic cell line. Cells were seeded overnight in 96 well plates at densities which without treatment would permit 95% confluence in the wells 72 H later. The following day, the cells were exposed to test compounds in a dilution series for a period of 48 hours. Following this incubation period, the Sytox reagent was added to the cultures at the manufacturer's recommended concentration and the dead cell fluorescence read was taken. After completion of this measurement, the detergent Saponin was added to each well of the cultures to permeabilize the membranes allowing the Sytox reagent to enter every cell thereby, facilitating measurement of the total number of cells remaining in the culture.

For a further assay, the system named is OVCAR-5. Kind of assay: Sytox screen, tumor cell line panel. Format: cell-based. The note with it: Homo sapiens, Ovarian, K-ras G12V, read-out: IC 50, OVCAR-5.
A further assay relates to HOP-62. The assay is described as follows: Sytox screen, tumor cell line panel. The assay is classed as cell-based. To be noted: Homo sapiens, Non-Small Cell Lung, K-ras G12V, read-out: IC 50, HOP-62.
The test system of the next assay is HT1080. The assay is described as follows: Sytox screen, tumor cell line panel. The assay is classed as cell-based. The note with it: Homo sapiens, HT-1080; fibrosarcoma; n-ras mutation; read-out: IC 50, HT1080.
In another assay the test system is MCF7. Kind of assay: Sytox screen, tumor cell line panel. The note with it: Homo sapiens, Breast, activated pathway, read-out: IC 50, MCF7. The assay is classed as cell-based.
In the next assay the test system is DLD-1. Kind of assay: Sytox screen, tumor cell line panel. The assay is classed as cell-based. The note with it: Homo sapiens, Colon, K-ras G13D mutation, wt B-raf, read-out: IC 50, DLD-1.
The subject of another assay is DU-145. The assay is described as follows: Sytox screen, tumor cell line panel. Format: cell-based. To be noted: Homo sapiens, Prostate, Wt ras, read-out: IC 50, DU-145.
The subject of a further assay is MALME-3M. Kind of assay: Sytox screen, tumor cell line panel. The assay is classed as cell-based. The note with it: Homo sapiens, Melanoma, B-raf V600E mut, ras wt, read-out: IC 50, MALME-3M.
The next assay deals with HT-1080 xenografts. Kind of assay: HT-1080 tumor treatment study. The assay is classed as in vivo, mouse. The note with it: nude Balb/c mice; 100 or 50 mg/Kg, QD×5 days, IP. On the procedure:
Nude Balb/c (Nu/Nu strain, Charles River Laboratories), female, 5-6 week. old (˜20 g average body weight).
Both compounds were formulated in an identical manner. For the 100 mg/kg dose level, each compound was delivered at a concentration of 10.0 mg/ml, in an injection volume of 0.2 ml. For the 50 mg/kg dose level, each compound was delivered at a concentration of 5.0 mg/ml, in an injection volume of 0.2 ml. For both dose levels, the vehicle contained 0.025% Tween-80, 0.01% benzyl alcohol, 35 mM acetic acid (HOAc), 100 mM potassium phosphate buffer, and 32 mM sucrose, pH=6.5.
Beginning when the mean tumor volume reached ˜200 mm^3, and continuing through day 5, every day, each animal was administered a single IP injection of one of the above treatments, for a total of 5 doses.
Each of 70 mice was implanted with 1×10^7 HT-1080 cells by SC injection of 0.1 cc of inoculum into the right hind flank. A 25 G×⅝″ needle size was used. […]
Starting on Day 1, all animals were weighed, and tumor dimensions (length (L) and width (W)) were measured, every other day. […]
The resulting tumor volume values were averaged for each study group for each time point, and were then plotted against time. Variance was expressed as standard error of the mean (±SEM).

In a further assay the test system is SK-MEL-5. The assay is described as follows: Sytox screen, tumor cell line panel. Format: cell-based. To be noted: Homo sapiens, Melanoma, B-raf V600E mut heterozygote, read-out: IC 50, SK-MEL-5.
A further assay deals with OVCAR-3. Kind of assay: Sytox screen, tumor cell line panel. The assay is classed as cell-based. The note with it: Homo sapiens, Ovarian, K-ras amplification, read-out: IC 50, OVCAR-3.
For another assay, the system named is MIA-PaCa-2. The assay is described as follows: Sytox screen, tumor cell line panel. The assay is classed as cell-based. The note with it: Homo sapiens, Pancreatic, K-ras mutant (G12C), read-out: IC 50, MIA-PaCa-2.
The next assay concerns SK-OV-3. Kind of assay: Sytox screen, tumor cell line panel. The note with it: Homo sapiens, Ovarian, read-out: IC 50, SK-OV-3. The assay is classed as cell-based.
For another assay, the system named is HCT116. Kind of assay: Sytox screen, tumor cell line panel. The note with it: Homo sapiens, HCT-116; Colon; K-ras G12D; read-out: IC 50, HCT116. Format: cell-based.
In another assay the test system is PANC-1 xenografts. The assay is described as follows: PANC-1 tumor treatment study. Format: in vivo. The note with it: immunodeficient nude mouse; once a day for five consecutive days. On the procedure:
The experimental plan for the PANC-1 study was essentially identical to that of the HT-1080 study outlined above in Example 10 with the following exceptions: approximately 30-40 mg fragment of passaged PANC-1 tumor tissue was implanted subcutaneously in the right flank of an immunodeficient nude mouse. Tumor growth was monitored daily and when the tumors reached approximately 100 mm^3, animals harboring similarly sized tumors were group matched and compound dosing was initiated. Administration of compound 5 occurred once a day for five consecutive days at the doses listed below. In the PANC-1 xenografts, gemcitabine, administered at the maximum tolerated dose for the model, was used as a control. The gemcitabine regimen was 180 mg/kg […] on every third day over a period of 9 days.

In the next assay the test system is BT-549. The assay is described as follows: Sytox screen, tumor cell line panel. The assay is classed as cell-based. The note with it: Homo sapiens, Breast, activated pathway, read-out: IC 50, BT-549.
The test system of another assay is PC-3. Kind of assay: Sytox screen, tumor cell line panel. The assay is classed as cell-based. To be noted: Homo sapiens, Prostate, read-out: IC 50, PC-3.
The next assay concerns HOP-92. Kind of assay: Sytox screen, tumor cell line panel. To be noted: Homo sapiens, Non-Small Cell Lung, Wt ras, read-out: IC 50, HOP-92. The assay is classed as cell-based.

Take `CCOc1ccccc1-n1c(CN2CCNCC2)nc2ccccc2c1=O` [Compound 5, 3-(2-ethoxyphenyl)-2-(piperazin-1-ylmethyl)quinazolin-4(3H)-one]: the pIC50 with SK-MEL-28 was ≤ 7.00; in the assay on PANC-1 it was > 7.00; in the assay on BJELR (Sytox screen, 48 hours, read-out: IC50 in BJELR) it was > 7.00; in the assay with BJELR (fibroblast, primary, ras V12 mutation, read-out: IC 50, BJELR), > 7.00; in the assay on OVCAR-5 it was > 7.00; with HOP-62 it was ≤ 7.00. Moreover, the pIC50 is > 7.00 in the assay on HT1080; ≤ 6.00 in the assay with MCF7; ≤ 7.00 with DLD-1; ≤ 7.00 with DU-145; ≤ 7.00 in the assay with MALME-3M; ≤ 7.00 in the assay with SK-MEL-5. Also, the pIC50 in the assay on OVCAR-3 is ≤ 7.00; in the assay on MIA-PaCa-2, ≤ 6.00; in the assay with SK-OV-3, ≤ 7.00; with HCT116 it was ≤ 7.00; with BT-549, ≤ 7.00; with PC-3 it was ≤ 6.00. The pIC50 with HOP-92 was ≤ 6.00. Moreover, in the assay with HT-1080 xenografts, the “antitumor activity in HT-1080 xenografts” value is “robust tumor regression”. For the same compound, in the assay on PANC-1 xenografts, the “antitumor activity in PANC-1 xenografts” value is “tumor regression”.
